Measurements reported in patent publication US10842765B2, “Methods of reducing or preventing oxidation of small dense ldl or membrane polyunsaturated fatty acids” (Amarin Pharmaceuticals Ireland Limited, priority 2016, dated 2020).

Assays:
[1] = test system: small dense LDL (sdLDL) isolated from human subjects; assay: Glucose-induced sdLDL oxidation (MDA/TBARS), Example 10; format: biochemical; details: 10 μM; glucose 200 mg/dL; 1 hr
Experimental: Vitamin E (α-tocopherol) purchased from Sigma-Aldrich was prepared in ethanol at 1.0 mM (ε=3.06×10^4 M^−1 cm^−1 at 294 nm) prior to experimental use. Test compounds were further diluted in ethanol or aqueous buffer as needed. Phosphate Buffered Saline (PBS) purchased from Sigma-Aldrich was prepared in double distilled water at 10 mM (138 mM NaCl, 2.7 mM KC, pH 7.4). Glucose prepared in PBS was added to test samples to achieve a final concentration of 11.0 mM (200 mg/dL).
LDL and sdLDL were isolated from the plasma of healthy volunteers by iodixanol density gradient ultracentrifugation and adjusted to a final apolipoprotein concentration of 10 mg/mL. […] Sample aliquots were incubated at 100° C. for 30 minutes and then assayed for the formation of thiobarbituric acid-reactive substances (TBARS), having a molar absorptivity (ε) value of 1.56×10^5 M^−1 cm^−1 at 532 nm and were derived principally from the reaction of thiobarbituric acid with malondialdehyde (MDA). Lipid oxidation was measured by the colorimetric detection of malondialdehyde (MDA), a marker of oxidative stress.
Data were presented as mean±SD for (n) separate samples or experiments. Differences between groups were analyzed using the unpaired, two-tailed Student's t-test (for comparisons between only two groups) or ANOVA followed by Student-Newman-Keuls multiple comparisons post hoc analysis (for comparisons between three or more groups). Only differences with probability values less than 0.05 were considered significant.

human LDL = assay: Copper-induced unfractionated LDL oxidation, TBARS, Example 7; format: biochemical; details: each agent 10.0 μM; 1 hour
HMG-CoA reductase = biological target: T1, HMG-CoA reductase (Homo sapiens, UniProt P04035); details: primary pharmacokinetic studies; hepatic cytochrome P450 metabolism; cited from earlier work
T1 sequence (P04035 1-888): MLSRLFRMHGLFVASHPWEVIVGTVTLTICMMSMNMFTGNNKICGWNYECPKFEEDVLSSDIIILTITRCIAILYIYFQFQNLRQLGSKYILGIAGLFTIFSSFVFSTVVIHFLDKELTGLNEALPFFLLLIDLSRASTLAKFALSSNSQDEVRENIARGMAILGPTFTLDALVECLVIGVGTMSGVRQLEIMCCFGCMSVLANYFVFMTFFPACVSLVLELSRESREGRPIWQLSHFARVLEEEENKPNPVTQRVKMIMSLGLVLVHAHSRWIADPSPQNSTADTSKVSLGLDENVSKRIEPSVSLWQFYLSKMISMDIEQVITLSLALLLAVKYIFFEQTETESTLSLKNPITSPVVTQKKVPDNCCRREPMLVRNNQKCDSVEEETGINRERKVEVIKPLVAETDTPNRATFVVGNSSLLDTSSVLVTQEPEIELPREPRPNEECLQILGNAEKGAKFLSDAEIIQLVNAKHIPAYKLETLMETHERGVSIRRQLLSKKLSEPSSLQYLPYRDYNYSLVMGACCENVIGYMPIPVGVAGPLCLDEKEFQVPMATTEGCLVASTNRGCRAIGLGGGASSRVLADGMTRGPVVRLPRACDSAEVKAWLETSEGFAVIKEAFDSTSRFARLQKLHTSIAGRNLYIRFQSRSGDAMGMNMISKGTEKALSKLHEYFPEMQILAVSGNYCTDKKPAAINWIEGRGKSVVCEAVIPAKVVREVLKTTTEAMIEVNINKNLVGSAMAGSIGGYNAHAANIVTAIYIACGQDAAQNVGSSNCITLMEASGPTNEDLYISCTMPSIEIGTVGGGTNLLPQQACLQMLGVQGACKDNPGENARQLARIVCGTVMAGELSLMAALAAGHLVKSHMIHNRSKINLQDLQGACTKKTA

human sdLDL [2] = assay: Copper-induced sdLDL oxidation, TBARS, Example 7; format: biochemical; details: each agent 10 μM; 1 hr
Experimental: Samples were prepared at 100 μg/mL sdLDL and incubated with EPA or DHA (10.0 μM each) for 30 minutes prior to initiating lipid oxidation using 10 μM CuSO4. Samples were maintained at 37° C. in a shaking water bath for 1 hour. Lipid oxidation was measured by colorimetric assay of TBARS formation and expressed as molar equivalents of MDA.
An experiment to study the antioxidant effect of EPA in LDL and small dense LDL (“sdLDL”) was performed. LDL and sdLDL were isolated from the plasma of healthy volunteers by iodixanol density gradient ultracentrifugation, and adjusted to a final apolipoprotein concentration of 2 mg/mL. […] Lipid oxidation was initiated with 10 μM CuSO4 and monitored by the colorimetric detection of thiobarbituric acid reactive substances (TBARS) for 1 hr. Vitamin E was also incubated with sample aliquots as a positive control.

unfractionated LDL = assay: Copper-induced unfractionated LDL oxidation, TBARS, Example 6; format: biochemical, human; details: 1.0 μM to 10.0 μM; data not shown
Experimental: All test compounds were further diluted in ethanol or aqueous buffer as needed. Venous blood was collected from healthy volunteers into vacutainer tubes containing sodium EDTA. […] Plasma and lipoprotein fractions were maintained at 4° C. and protected from excessive exposure to light. Prior to oxidation experiments, EDTA was removed from the lipoprotein fraction using PD-10 desalting columns (GE Healthcare, Piscataway N.J.). After equilibration of the column with phosphate buffered saline (PBS), 2.5 mL of the lipoprotein fraction was loaded on the column and the flow-through discarded. The lipoprotein was then eluted with 3 mL of PBS. The LDL fractions were further diluted with PBS to obtain a 100 μg/mL apoB100 concentration. […] Differences between groups were analyzed using the two-tailed, Student's t-test (for comparisons between only two groups) or ANOVA followed by Dunnett or Student-Newman-Keuls multiple comparisons post-hoc analysis (for comparisons between three or more groups).

human sdLDL [3] = assay: Copper-induced sdLDL oxidation, TBARS after 2 hr, Example 6; format: biochemical; details: 1.0 μM to 10.0 μM
Experimental: An experiment to study the antioxidant effect of EPA in small dense […] performed. […] Vitamin E (α-tocopherol) was purchased from Sigma-Aldrich and prepared in ethanol at 1.0 mM (ε=3.06×10^4 M^-1 cm^-1 at 294 nm) just prior to experimental use. All test compounds were further diluted in ethanol or aqueous buffer as needed. Venous blood was collected from healthy volunteers into vacutainer tubes containing sodium EDTA. Plasma was separated by centrifugation at 3000 g for 25 min at 4° C. and adjusted to a density of 1.020 g/mL with KBr. Triglyceride-rich lipoproteins (TGRL) and LDL fractions were then isolated bysequential centrifugation at 70,000 rpm at 4° C. in a Beckman LE-80 ultracentrifuge using a Beckman 50.4Ti rotor (Beckman Coulter, Inc., Fullerton, Calif.). The TGRL fraction (with a relative density of <1.020) was aspirated from the top of the centrifugate and discarded, leaving an LDL-enriched […] relative density of 1.020 to 1.063). […] The sdLDL subfraction was retained for additional experimentation. Plasma and lipoprotein fractions were maintained at 4° C. and protected from excessive exposure to light. […] Differences between groups were analyzed using the two-tailed, Student's t-test (for comparisons between only two groups) or ANOVA followed by Dunnett or Student-Newman-Keuls multiple comparisons post-hoc analysis (for comparisons between three or more groups).

[4] = Glucose-induced membrane lipid peroxidation (LOOH) in lipid vesicles, Example 4; format: biochemical; details: 72- and 96-hour time points; 1:30 drug-to-phospholipid mole ratio; glucose
Experimental: An experiment was conducted to test the ability of EPA to interfere with the effects of high glucose on membrane lipid peroxidation and organization in vesicles enriched with PUFAs. […] Vitamin E (α-tocopherol) was also purchased from Sigma-Aldrich and prepared in ethanol at 1.0 mM (ε=3.06×10^4 M^−1 cm^−1 at 294 nm) just prior to experimental use. […] All test compounds were further diluted in ethanol or aqueous buffer as needed. Glucose was prepared in saline buffer (0.5 mM HEPES, 154 mM NaCl, pH 7.3) at 11.0 mM (200 mg/dL). CHOD-iodide color reagent (stock) was prepared, with slight modification, as described by from El-Saadani et al. (J. […] Samples were shell-dried under nitrogen gas and placed under vacuum for 1 h to remove residual solvent. […] Lipid suspensions were then vortexed for 3 min at ambient temperature to form MLVs. All MLV samples were subjected to time-dependent autoxidation by incubating at 37° C. in an uncovered, shaking water bath. This method allows lipid peroxidation to occur gradually without requiring the use of exogenous initiators. Small aliquots (5-100 μL) of each sample were removed, immediately following MLV preparation (0 hour) and after exposing samples to oxidative conditions for 72 or 96 hour, and combined with 1.0 mL of activated CHOD-iodide color reagent. Aliquot volume was reduced with each successive time point to ensure that spectrophotometric readings were within the optimal adsorption range. Test samples were covered and incubated in darkness at room temperature for at least 4 hr. Sample absorbances were then measured against a CHOD blank at 365 nm using a Beckman DU-640 spectrophotometer. The CHOD colorimetric assay is based on the oxidation of iodide (I^−) by lipid hydroperoxide (LOOH) to form triiodide (I3^−), the quantity of which is directly proportional to the amount of LOOH present in the lipid sample. The molar absorptivity (I3^−) of I3^− is 2.46×10^4 M^−1 cm^−1 at 365 nm. […]

| Compound | inhibition of glucose-induced sdLDL oxidation (in words) [1] | effect on unfractionated LDL oxidation (human LDL) | share of circulating HMG-CoA reductase inhibitory activity accounted for by active metabolites (HMG-CoA reductase) | inhibition of sdLDL oxidation (TBARS formation) vs vehicle (human sdLDL [2]) | increase of sdLDL oxidation as compared to glucose-treated controls [1] | inhibition of LDL oxidation (unfractionated LDL) | inhibition of sdLDL oxidation (human sdLDL [3]) | effect on LOOH formation / lipid peroxidation [4] |
| --- | --- | --- | --- | --- | --- | --- | --- | --- |
| Cc1ccc(C)c(OCCCC(C)(C)C(=O)O)c1 [Gemfibrozil, gemfibrozil] | did not inhibit glucose-induced sdLDL oxidation | no significant effect on unfractionated LDL oxidation | – | – | – | – | – | – |
| O=C(O)c1cccnc1 [Niacin, nicotinic acid] | did not inhibit glucose-induced sdLDL oxidation | no significant effect on unfractionated LDL oxidation | – | – | – | – | – | – |
| CC(C)c1c(C(=O)Nc2ccccc2)c(-c2ccccc2)c(-c2ccc(F)cc2)n1CC[C@@H](O)C[C@@H](O)CC(=O)O [atorvastatin] | – | did not have any significant antioxidant activity | approximately 70% | 0.1±7% | – | – | – | – |
| Cc1c(C)c2c(c(C)c1O)CC[C@@](C)(CCC[C@H](C)CCC[C@H](C)CCCC(C)C)O2 [vitamin E, α-tocopherol] | failed to inhibit sdLDL oxidation | no significant effect on unfractionated LDL oxidation | – | – | 63% | did not inhibit LDL oxidation at any concentration | did not inhibit sdLDL oxidation except at the highest concentration | no significant effect on lipid peroxidation |
